Laboratory results reported in publication PMC11165489, “Polyketide Trimming Shapes Dihydroxynaphthalene‐Melanin and Anthraquinone Pigments” (Advanced Science, 2024).

Assays:
Type in all cases: binding
[1] = target: T1, Afyg1p (Aspergillus fumigatus, UniProt Q4WZB3); assay: X-ray crystal structure; details: reaction product in specificity pocket; 1.7 A
T1 construct: gene ayg1; homodimer; active-site Ser257, His380, Asp352; construct and host only in supplement

[2] = target: T2, Wdyg1p (Exophiala dermatitidis, UniProt Q6BCB5); assay: X-ray crystal structure
T2 construct: gene yg1; homodimer; N-domain residues 1-139, C-domain residues 144-393; active-site Ser256, His378; construct and host only in supplement

[3] = target: T3, PlAntI (Photorhabdus laumondii, UniProt Q7MZT8); assay: X-ray crystal structure; mass spectrometry; details: covalent; Ser245 converted to dehydroalanine, inhibitor itself eliminated; 1.8 A
T3 construct: gene plu4186; crystallised enzyme; catalytic Ser245, His355, Asp326; construct and host only in supplement
T3 sequence (Q7MZT8 1-384): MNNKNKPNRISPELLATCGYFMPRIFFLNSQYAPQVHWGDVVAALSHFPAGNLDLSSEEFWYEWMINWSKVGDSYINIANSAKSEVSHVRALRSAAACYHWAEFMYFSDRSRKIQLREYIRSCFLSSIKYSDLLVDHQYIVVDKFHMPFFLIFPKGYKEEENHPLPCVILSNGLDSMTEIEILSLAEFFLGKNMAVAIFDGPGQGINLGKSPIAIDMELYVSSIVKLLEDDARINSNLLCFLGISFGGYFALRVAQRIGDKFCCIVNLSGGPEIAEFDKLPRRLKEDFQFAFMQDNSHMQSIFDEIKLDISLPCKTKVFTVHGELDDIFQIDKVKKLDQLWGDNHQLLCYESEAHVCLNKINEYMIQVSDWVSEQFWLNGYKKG

T2 sequence (Q6BCB5 entry or part of it): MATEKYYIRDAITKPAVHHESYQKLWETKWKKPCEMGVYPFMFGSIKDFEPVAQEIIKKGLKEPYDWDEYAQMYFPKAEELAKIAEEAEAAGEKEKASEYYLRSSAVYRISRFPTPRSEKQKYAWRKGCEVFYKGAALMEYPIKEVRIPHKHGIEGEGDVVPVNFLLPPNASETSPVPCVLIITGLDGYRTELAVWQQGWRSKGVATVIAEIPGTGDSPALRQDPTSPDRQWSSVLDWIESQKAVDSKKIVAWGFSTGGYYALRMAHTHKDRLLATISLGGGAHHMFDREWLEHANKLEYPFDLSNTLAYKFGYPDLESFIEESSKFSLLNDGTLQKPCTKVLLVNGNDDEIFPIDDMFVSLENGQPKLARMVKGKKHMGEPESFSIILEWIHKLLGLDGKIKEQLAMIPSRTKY
T1 sequence (Q4WZB3 2-406): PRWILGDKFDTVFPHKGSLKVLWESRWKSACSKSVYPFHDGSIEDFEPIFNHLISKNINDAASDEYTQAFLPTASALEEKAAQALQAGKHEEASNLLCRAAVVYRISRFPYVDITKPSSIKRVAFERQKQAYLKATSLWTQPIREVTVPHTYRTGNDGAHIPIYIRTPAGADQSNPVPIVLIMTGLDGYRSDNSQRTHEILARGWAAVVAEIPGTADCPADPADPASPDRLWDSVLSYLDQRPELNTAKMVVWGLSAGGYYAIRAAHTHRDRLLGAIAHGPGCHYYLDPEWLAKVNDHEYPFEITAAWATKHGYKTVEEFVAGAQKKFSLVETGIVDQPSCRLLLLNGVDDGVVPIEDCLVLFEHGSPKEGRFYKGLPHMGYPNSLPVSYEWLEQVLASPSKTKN

## Oc1cc(O)c2c(O)cc(O)cc2c1 [THN, 1,3,6,8‐tetrahydroxynaphthalene]
[1]
  X-ray crystal structure: the structure of Afyg1p in complex with its reaction product THN was analyzed
[2]; reaction product in specificity pocket, 1.95 A
  X-ray crystal structure: Wdyg1p crystal structure in complex with its product, THN (Wdyg1p:THN, PDB ID: 8QD9

## O=S(=O)(F)c1ccccc1 [PSF, phenyl‐SF]
[2]; covalent, Ser256 converted to dehydroalanine, inhibitor itself eliminated, 1.85 A
  X-ray crystal structure: treatment of Wdyg1p with PMSF (*) or PSF (^#) leads to the β‐elimination mediated conversion
[3]
  X-ray crystal structure; mass spectrometry: treatment of PlAntI with PMSF (*) or PSF (^#) appears to also introduce a DHA
